Experimental data reported in paper PMC3119039 (2011).

Biological target: Cdk2^as (Homo sapiens, UniProt P24941, F80G)
Experiment: histone H1 kinase assay with [γ-32P]ATP, purified Cdk2/cyclin A
Type: biochemical

Cc1cccc(Cc2nn(C(C)(C)C)c3ncnc(N)c23)c1 [3-MB-PP1]
IC50: ~3 nM
